Where two headings read alike, the source gives them in different places.
Assays:
[1] = biological target: T1, serotonin transporter (Homo sapiens, UniProt P31645); experiment: Functional activity, serotonin uptake inhibition in human HEK-293 cell lines; assay type: cell-based; design: expressed in transfected cells; host or cells: HEK-293
[2] = biological target: T2, norepinephrine transporter (Homo sapiens, UniProt P23975); experiment: NE uptake: displacement of norephinephrine ligands in vitro (methods of Galli et al.); assay type: binding
T2 sequence (P23975 whole entry): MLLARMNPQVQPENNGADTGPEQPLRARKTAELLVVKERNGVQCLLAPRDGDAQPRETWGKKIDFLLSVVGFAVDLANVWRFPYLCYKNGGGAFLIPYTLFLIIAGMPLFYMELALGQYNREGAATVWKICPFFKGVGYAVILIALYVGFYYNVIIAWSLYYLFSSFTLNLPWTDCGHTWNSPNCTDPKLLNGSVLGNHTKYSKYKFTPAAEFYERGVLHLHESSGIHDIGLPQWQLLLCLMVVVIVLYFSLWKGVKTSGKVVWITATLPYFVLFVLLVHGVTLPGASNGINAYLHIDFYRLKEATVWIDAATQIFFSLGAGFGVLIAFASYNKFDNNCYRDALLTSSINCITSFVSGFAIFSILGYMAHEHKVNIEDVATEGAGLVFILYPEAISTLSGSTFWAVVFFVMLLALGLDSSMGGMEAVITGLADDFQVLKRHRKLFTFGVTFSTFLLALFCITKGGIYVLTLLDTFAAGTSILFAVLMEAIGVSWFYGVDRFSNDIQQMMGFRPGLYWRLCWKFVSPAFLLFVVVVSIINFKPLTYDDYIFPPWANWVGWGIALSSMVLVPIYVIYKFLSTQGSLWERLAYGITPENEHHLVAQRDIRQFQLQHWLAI

[3] = biological target: T2, norepinephrine transporter; experiment: Functional activity, norephinephrine uptake inhibition in MDCK cell lines; assay type: cell-based
[4] = biological target: DAT (Homo sapiens, UniProt Q01959); experiment: cell-based; design: expressed in transfected cells; settings: hDAT cell line; read-out: DA Uptake, Functional Assays (antagonism, EC50)
Chain of DAT (Q01959 whole entry): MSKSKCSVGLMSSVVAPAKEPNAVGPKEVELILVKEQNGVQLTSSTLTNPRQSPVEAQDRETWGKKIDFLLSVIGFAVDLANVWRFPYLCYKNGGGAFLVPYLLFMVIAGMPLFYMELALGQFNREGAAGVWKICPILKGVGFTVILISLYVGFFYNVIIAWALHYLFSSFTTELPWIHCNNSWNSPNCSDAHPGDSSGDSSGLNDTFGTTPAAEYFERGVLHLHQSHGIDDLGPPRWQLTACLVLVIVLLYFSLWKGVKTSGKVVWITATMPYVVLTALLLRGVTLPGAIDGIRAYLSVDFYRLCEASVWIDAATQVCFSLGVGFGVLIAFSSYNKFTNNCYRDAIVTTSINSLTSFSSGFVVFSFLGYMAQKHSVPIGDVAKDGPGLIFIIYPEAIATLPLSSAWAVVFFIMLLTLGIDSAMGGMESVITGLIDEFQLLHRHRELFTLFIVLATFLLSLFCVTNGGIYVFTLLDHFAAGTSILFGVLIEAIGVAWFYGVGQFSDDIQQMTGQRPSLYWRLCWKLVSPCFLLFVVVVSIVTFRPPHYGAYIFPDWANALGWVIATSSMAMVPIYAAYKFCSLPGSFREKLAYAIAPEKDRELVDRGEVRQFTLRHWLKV

[5] = biological target: dopamine transporter (Homo sapiens, UniProt Q01959); experiment: DA uptake: displacement of dopamine ligands in vitro (methods of Gu et al.); settings: DA Uptake, Uptake Profile (IC50, nM), displacement of dopamine ligands in vitro
Chain of dopamine transporter (Q01959 whole entry): as above

[6] = biological target: T1, serotonin transporter; experiment: 5-HT uptake: displacement of serotonin ligands in vitro (methods of Gu et al.); assay type: binding
[7] = test system: mouse; experiment: Acute toxicity assessment, maximum tolerated dose i.v., mouse; assay type: in vivo; settings: mice
Protocol: (§1) An in vivo evaluation was carried out to determine the maximum tolerated dose of numerous test compounds in two animal species (mouse and rat). The compounds were administered i.v. and the animals were then observed for 72 h. Compounds 114, 115, 113, 110, 124, 125, 129, and 130 were solubilized in 5% dextrose (w/v)/polyethylene glycol 400 (4:1 v/v). Compounds 126, 127, 131, and 132 were solubilized in 10% hydroxypropyl-β-cyclodextrin (w/v).

[8] = test system: rat; experiment: Acute toxicity assessment, maximum tolerated dose i.v., rat; assay type: in vivo; settings: rats
Protocol: as §1

[9] = test system: rats; experiment: Behavioral despair assay in rats, 3 i.p. injections (Example 143); assay type: in vivo, rat; settings: 30 mg/kg, 3 i.p. injections 24 h, 5 h and 1 h before test
Description: The objective of this study was to assess the antidepressant effects of test compounds 124, 125, 126, and 127 in the behavioral despair assay in rats according to the methods described by Porsolt R. D., Anton G., Blavet N., Jalfre M., Behavioural despair in rats: a new model sensitive to antidepressant treatment, Eur. J. Pharmacol., 1978, 47, 379-391. The animals were preconditioned in a pretest session, where the rats were individually forced to swim inside a vertical plexiglass cylinder containing water maintained at 19-20° C. After 15 minutes in the water, they were allowed to dry for 15 minutes in a heated enclosure. Twenty four hours later, they were replaced in the cylinder and the total duration of immobility was measured during a 5 minute test (test session). The test compounds and vehicle were administered as a series of 3 intraperitoneal injections 24 h, 5 h and 1 h before the 5 minute test on the second day.
The results are expressed as the percentage of variation of the total duration of immobility calculated from the mean value of the vehicle-treated group (% variation=[(immobility duration of vehicle-immobility duration of test compound)/(immobility duration of vehicle)]×100%).

[10] = human HEK-293 cell lines, read-out: 5-HT Uptake, Functional Assays (antagonism, EC50)
[11] = NE Uptake, Uptake Profile (IC50, nM)
[12] = displacement of serotonin ligands in vitro, read-out: 5-HT Uptake, Uptake Profile (IC50)
[13] = read-out: NE Uptake, Uptake Profile (IC50)
[14] = 5-HT Uptake, Uptake Profile (IC50, nM)

T1 sequence (P31645 whole entry): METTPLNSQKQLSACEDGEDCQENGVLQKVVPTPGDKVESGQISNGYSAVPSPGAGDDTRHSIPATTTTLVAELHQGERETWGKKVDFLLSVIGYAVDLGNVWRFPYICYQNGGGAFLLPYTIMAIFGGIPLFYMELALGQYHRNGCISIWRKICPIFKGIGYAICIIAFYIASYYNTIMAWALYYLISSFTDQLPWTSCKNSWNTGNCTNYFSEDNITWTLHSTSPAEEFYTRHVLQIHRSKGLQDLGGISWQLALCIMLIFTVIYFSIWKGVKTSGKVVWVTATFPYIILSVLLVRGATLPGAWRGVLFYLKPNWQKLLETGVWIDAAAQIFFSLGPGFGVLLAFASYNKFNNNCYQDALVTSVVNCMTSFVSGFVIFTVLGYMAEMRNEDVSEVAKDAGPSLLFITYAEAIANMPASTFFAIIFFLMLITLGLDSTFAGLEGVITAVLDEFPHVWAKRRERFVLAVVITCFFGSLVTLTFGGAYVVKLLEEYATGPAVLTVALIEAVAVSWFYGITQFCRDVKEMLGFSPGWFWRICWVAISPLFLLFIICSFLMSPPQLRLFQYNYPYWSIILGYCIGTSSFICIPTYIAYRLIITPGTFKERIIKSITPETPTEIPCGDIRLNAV

Row | SMILES | EC50 [1, 10] | IC50 [2, 11] | EC50 [3] | EC50 [4] | IC50 [5] | IC50 [6, 12] | further results
1 | Clc1ccc(C2(CN3CCCC(COc4ccc5c(c4)OCO5)C3)CCC2)cc1 (stereo not drawn) [compound 83] | < 100 nM | < 1000 nM | < 1000 nM | < 10 nM | < 100 nM | < 1000 nM | –
2 | OC(CN1CCCC(COc2ccc(C(F)(F)F)cc2)C1)C1(c2ccccc2OC(F)(F)F)CCC1 (single isomer, unassigned) [compound 225, 1-[1-(2-Trifluoromethoxy-phenyl)-cyclobutyl]-2-[3-(4-trifluoromethyl-phenoxymethyl)-piperidin-1-yl]-ethanol] | > 1000 nM | – | – | > 1000 nM | < 10 nM | < 1000 nM | IC50 [2, 13]: > 1000 nM; EC50 ([3]; read-out: NE Uptake, Functional Assays (antagonism, EC50), MDCK cell lines): > 1000 nM
3 | OC[C@H]1[C@@H](COc2ccc(C(F)(F)F)cc2)CCCN1CC1(c2ccc(Cl)cc2)CCC1 (single isomer, unassigned) [compound 132, cis-[1-[1-(4-chloro-phenyl)-cyclobutylmethyl]-3-(4-trifluoromethyl-phenoxymethyl)-piperidin-2-yl]-methanol] | – | < 100 nM | – | – | < 10 nM | < 1000 nM | tolerability and mortality after 72 h ([7]; 30 mg/kg i.v.): well tolerated; tolerability and mortality after 72 h ([8]; 30 mg/kg i.v.): well tolerated
4 | CC(Oc1ccc(C(F)(F)F)cc1)C1CCCN(CC2(c3ccc(Cl)cc3)CCC2)C1 (stereo not drawn) [compound 99, 1-[1-(4-chloro-phenyl)-cyclobutylmethyl]-3-[1-(4-trifluoromethyl-phenoxy)-ethyl]-piperidine] | > 1000 nM | < 1000 nM | < 1000 nM | < 10 nM | < 100 nM | < 1000 nM | –
5 | OC(CN1CCCC(CCc2ccccc2)C1)c1ccc(Cl)cc1 (single isomer, unassigned) [compound 143, 1-(4-Chloro-phenyl)-2-(3-phenethyl-piperidin-1-yl)-ethanol] | – | < 100 nM | – | – | < 100 nM | < 10 nM | tolerability and mortality after 72 h ([7]; 5 mg/kg i.v.): tolerated; tolerability and mortality after 72 h ([8]; 5 mg/kg i.v.): tolerated
6 | CN(C)CCCN1c2ccccc2CCc2ccccc21 [Imipramine] | – | – | – | – | – | – | % variation of the total duration of immobility [9]: 55%
7 | OC(CN1CCC[C@@H](CCc2ccccc2)C1)c1ccc(Cl)cc1 (stereo partly drawn) [compound 233] | < 10 nM | < 100 nM | < 10 nM | < 10 nM | < 10 nM | < 10 nM | –
8 | FC(F)(F)c1ccc(COC[C@H]2CCCN(CC3(c4ccc(Cl)cc4)CCC3)C2)cc1 [compound 129, S-1-[1-(4-Chloro-phenyl)-cyclobutylmethyl]-3-(4-trifluoromethyl-benzyloxymethyl)-piperidine] | < 100 nM | < 100 nM | < 100 nM | < 10 nM | < 10 nM | > 1000 nM | tolerability after 72 h ([7]; 20 mg/kg i.v.): well tolerated; tolerability and mortality after 72 h ([8]; 30 mg/kg i.v.): well tolerated
9 | OC(CN1CCCC(CCc2ccccc2)C1)c1ccc(Cl)cc1 (single isomer, unassigned) [compound 144, 1-(4-Chloro-phenyl)-2-(3-phenethyl-piperidin-1-yl)-ethanol] | – | < 100 nM | – | – | < 10 nM | < 10 nM | tolerability and mortality after 72 h ([7]; 5 mg/kg i.v.): tolerated; tolerability and mortality after 72 h ([8]; 5 mg/kg i.v.): tolerated
10 | FC(F)(F)c1ccc(OCC2CN(CC3(c4ccc(Cl)cc4)CCC3)CCO2)cc1 (stereo not drawn) [compound 102] | – | > 1000 nM | < 10 nM | < 10 nM | < 100 nM | – | EC50 ([1]; 5-HT Uptake, Functional Assays (antagonism, EC50, nM)): > 1000 nM; IC50 [6, 14]: > 1000 nM
11 | OC(CN1CCCC(COc2ccc(C(F)(F)F)cc2)C1)C1(c2ccccc2OC(F)(F)F)CCC1 (single isomer, unassigned) [compound 224, 1-[1-(2-Trifluoromethoxy-phenyl)-cyclobutyl]-2-[3-(4-trifluoromethyl-phenoxymethyl)-piperidin-1-yl]-ethanol] | < 1000 nM | – | > 1000 nM | > 1000 nM | > 1000 nM | > 1000 nM | IC50 [2, 13]: > 1000 nM
12 | FC(F)(F)c1ccc(OCC2CCCN(CC3(c4ccc(Cl)cc4)CCC3)C2)cc1 (stereo not drawn) [compound 7] | – | > 1000 nM | – | < 100 nM | < 100 nM | – | IC50 [6, 14]: > 1000 nM
13 | Clc1ccc(C2(CN3CCC[C@@H](CNc4ccccc4)C3)CCC2)cc1 [compound 28, {1-[1-(4-Chloro-phenyl)-cyclobutylmethyl]-piperidin-3-R-ylmethyl}-phenyl-amine] | < 1000 nM | < 1000 nM | < 1000 nM | < 100 nM | < 1000 nM | < 1000 nM | –
14 | OCC1CCCN(CC2(c3ccc(Cl)cc3)CCC2)C1 (stereo not drawn) [compound 2] | – | > 1000 nM | – | < 100 nM | < 1000 nM | – | IC50 [6, 14]: > 1000 nM
15 | OC[C@H]1[C@@H](COc2ccc(C(F)(F)F)cc2)CCCN1CC1(c2ccc(Cl)cc2)CCC1 (racemic) [compound 82, cis-[1-[1-(4-chloro-phenyl)-cyclobutylmethyl]-3-(4-trifluoromethyl-phenoxymethyl)-piperidin-2-yl]-methanol] | – | < 1000 nM | < 1000 nM | < 100 nM | < 100 nM | < 1000 nM | –
16 | O=C(CN1CCC[C@H](COc2ccc(C(F)(F)F)cc2)C1)C1(c2ccc(Cl)cc2)CCC1 [compound 123, S-1-[1-(4-Chloro-phenyl)-cyclobutyl]-2-[3-(4-trifluoromethyl-phenoxymethyl)-piperidin-1-yl]-ethanone] | < 1000 nM | < 1000 nM | < 1000 nM | < 10 nM | < 10 nM | < 1000 nM | –
17 | O=C(CN1CCC[C@@H](COc2ccc(C(F)(F)F)cc2)C1)C1(c2ccc(Cl)cc2)CCC1 [compound 128, S-1-[1-(4-Chloro-phenyl)-cyclobutyl]-2-[3-(4-trifluoromethyl-phenoxymethyl)-piperidin-1-yl]-ethanone] | < 1000 nM | < 1000 nM | < 1000 nM | < 10 nM | < 100 nM | < 1000 nM | –
18 | Fc1ccc(OCC2CCCN(CC3(c4ccc(Cl)cc4)CCC3)C2)cc1 (stereo not drawn) [compound 86, 1-[1-(4-Chloro-phenyl)-cyclobutylmethyl]-3-(4-fluoro-phenoxmethyl)-piperidine] | < 1000 nM | < 1000 nM | < 1000 nM | < 10 nM | < 100 nM | < 1000 nM | –
19 | OC[C@H]1[C@@H](COc2ccc(C(F)(F)F)cc2)CCCN1CC1(c2ccc(Cl)cc2)CCC1 (single isomer, unassigned) [compound 131, cis-[1-[1-(4-chloro-phenyl)-cyclobutylmethyl]-3-(4-trifluoromethyl-phenoxymethyl)-piperidin-2-yl]-methanol] | – | < 1000 nM | – | – | < 100 nM | < 1000 nM | tolerability and mortality after 72 h ([7]; 30 mg/kg i.v.): well tolerated; tolerability and mortality after 72 h ([8]; 30 mg/kg i.v.): well tolerated
20 | OC(CN1CCCC(COc2ccc(C(F)(F)F)cc2)C1)c1c[nH]c2ccc(Cl)cc12 (stereo not drawn) [compound 222, 1-(5-Chloro-1H-indol-3-yl)-2-[3-(4-trifluoromethyl-phenoxymethyl)-piperidin-1-yl]-ethanol] | – | > 1000 nM | – | – | > 1000 nM | < 1000 nM | –
21 | OC(CN1CCCC(CCc2ccc(C(F)(F)F)cc2)C1)c1ccc(Cl)cc1 (single isomer, unassigned) [compound 152, 1-(4-Chloro-phenyl)-2-{3-[2-(4-trifluoromethyl-phenyl)-ethyl]-piperidin-1-yl}-ethanol] | – | < 1000 nM | – | – | < 1000 nM | < 100 nM | –
22 | CC(C)(CN1CCCC(CO)C1)c1ccc(Cl)cc1 (stereo not drawn) [compound 80] | – | – | – | – | > 1000 nM | > 1000 nM | IC50 [2, 13]: > 1000 nM
23 | OC(CN1CCCC(CCc2ccc(C(F)(F)F)cc2)C1)C1(c2ccc(Cl)cc2)CCC1 (single isomer, unassigned) [compound 193, 1-[1-(4-Chloro-phenyl)-cyclobutyl]-2-{3-[2-(4-trifluoromethyl-phenyl)-ethyl]-piperidin-1-yl}-ethanol] | – | < 10 nM | – | – | < 10 nM | < 1000 nM | –

— patent US7294637B2 (Sepracor, Inc., priority 2000, dated 2007)
